From PubChem BioAssay AID838 (SRMLSC, 2007)
Activity calls are given as the source filed them. No rule for the calls is given here.

The compounds below were run against Pantothenate synthetase (Mycobacterium tuberculosis (strain ATCC 25618 / H37Rv)) (UniProt P9WIL5) (assay: Biochemical confirmation of M. tuberculosis pantothenate synthetase inhibitors (AID 838)). Conditions: M. tuberculosis pantothenate synthetase enzyme inhibition.
Pantothenate synthetase (Mycobacterium tuberculosis (strain ATCC 25618 / H37Rv)), sequence (P9WIL5 whole entry, looked up): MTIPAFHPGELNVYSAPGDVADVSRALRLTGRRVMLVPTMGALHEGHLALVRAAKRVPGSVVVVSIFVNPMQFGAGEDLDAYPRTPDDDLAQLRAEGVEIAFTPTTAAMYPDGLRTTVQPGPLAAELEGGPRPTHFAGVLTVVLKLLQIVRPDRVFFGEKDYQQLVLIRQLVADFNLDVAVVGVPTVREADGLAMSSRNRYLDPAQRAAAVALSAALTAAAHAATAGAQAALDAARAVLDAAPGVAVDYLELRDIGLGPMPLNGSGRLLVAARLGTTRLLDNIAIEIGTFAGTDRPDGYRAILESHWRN

`CC(C)(C)c1ccc2onc(C(=O)Nc3cnn(Cc4cccc(F)c4)c3)c2c1` was tested. Which IC50 did it give?
Its IC50 is 640 nM.

With `CC(C)(C)C1CCc2onc(C(=O)Nc3cnn(Cc4cccc(I)c4)c3)c2C1` (stereo not given) as the compound, how does the IC50 read?
Its IC50 is 101 nM.

How did the IC50 turn out when `CC(C)(C)c1ccc2onc(C(=O)Nc3cnn(Cc4ccc(F)cc4)c3)c2c1` was run?
The IC50 was 351 nM.

Which IC50 does the source give for `COc1ccc(-c2cc(C(=O)Nc3cnn(Cc4ccccc4C)c3)no2)cc1` here?
Its IC50 is 47700 nM.

With `Cc1ccccc1Cn1cc(NC(=O)c2noc3c2CC(C(C)(C)C)CC3)cn1` (stereo not given) as the compound, how does the IC50 read?
Its IC50 is 150 nM.

With `CC(C)(C)C1CCc2onc(C(=O)Nc3cnn(Cc4ccc(F)cc4F)c3)c2C1` (stereo not given) as the compound, how does the IC50 read?
The IC50 was 128 nM.

Which IC50 does the source give for `O=C(Nc1cnn(Cc2ccc(F)cc2)c1)c1noc2ccc(-c3ccccc3)cc12` here?
Its IC50 is 108000 nM.

How did the IC50 turn out when `CC(C)(C)C1CCc2onc(C(=O)Nc3cnn(Cc4ccccc4I)c3)c2C1` (stereo not given) was run?
The IC50 was 104 nM.

For `CC(C)(C)C1CCc2onc(C(=O)Nc3cnn(Cc4ccc(Cl)cc4Cl)c3)c2C1` (stereo not given), which IC50 is on record?
Its IC50 is 111 nM.

Which IC50 does the source give for `CC(C)(C)C1CCc2onc(C(=O)Nc3cnn(Cc4ccc(I)cc4)c3)c2C1` (stereo not given) here?
Its IC50 is 68 nM.

`CC(C)(C)C1CCc2onc(C(=O)Nc3cnn(Cc4ccccc4C(F)(F)F)c3)c2C1` (stereo not given) was tested. Which IC50 did it give?
Its IC50 is 274 nM.

With `CC(C)(C)c1ccc2onc(C(=O)Nc3cnn(Cc4ccc(I)cc4)c3)c2c1` as the compound, how does the IC50 read?
The IC50 was 36300 nM.

Same assay, conditions: M. tuberculosis pantothenate synthetase enzyme inhibition; at 100 µM; stronger effect = higher value

`COc1ccccc1-c1cc(C(=O)Nc2cnn(Cc3ccccc3C)c2)no1` was tested. Which inhibition did it give?
Its inhibition is “inactive”.

`O=C(Nc1cnn(Cc2ccc(F)cc2)c1)c1noc2c1CC(c1ccccc1)CC2` (stereo not given) was tested. Which inhibition did it give?
Its inhibition is “inactive”.

Which inhibition does the source give for `O=C(Nc1cnn(Cc2ccc(F)cc2)c1)c1cc(C2CC2)on1` here?
Its inhibition is “inactive”.

How did the inhibition turn out when `CCN(Cc1ccncc1)CC1CCCN(C(=O)c2cc(C)on2)C1` (stereo not given) was run?
Its inhibition is “inactive”.

For `CCCN(CC1CC1)CC1CCCN(C(=O)c2cc(C)on2)C1` (stereo not given), which inhibition is on record?
The inhibition was “inactive”.

With `Cc1ccccc1Cn1cc(NC(=O)c2cc(-c3ccco3)on2)cn1` as the compound, how does the inhibition read?
The inhibition was “inactive”.

How did the inhibition turn out when `Cc1ccccc1Cn1cc(NC(=O)c2noc3c2CCCC3)cn1` was run?
The inhibition was “inactive”.

`O=C(Nc1cnn(Cc2ccc(Cl)cc2Cl)c1)c1noc2c1CCCC2` was tested. Which inhibition did it give?
Its inhibition is “inactive”.

With `COc1cc(CN(C)C(=O)c2ccc(N3CCc4ccccc4C3)nc2)cc(OC)c1OC` as the compound, how does the inhibition read?
The inhibition was “inactive”.

For `Cc1cc(C(=O)NCCc2nc(C(=O)NCCN(C)C)cs2)no1`, which inhibition is on record?
The inhibition was “inactive”.

How did the inhibition turn out when `Cc1cc(C(=O)N2CCc3[nH]cnc3C2c2ccc(-n3cncn3)cc2)no1` (stereo not given) was run?
Its inhibition is “inactive”.

With `Cc1cc(C(=O)N2CCCC(CN3CCC(C(F)(F)F)CC3)C2)no1` (stereo not given) as the compound, how does the inhibition read?
Its inhibition is “inactive”.

How did the inhibition turn out when `Cc1ccccc1Cn1cc(NC(=O)c2cc(C3CC3)on2)cn1` was run?
Its inhibition is “inactive”.

Which inhibition does the source give for `Cc1cc(C(=O)N2CCCC(CN(C)Cc3ccc(Cl)cc3)C2)no1` (stereo not given) here?
The inhibition was “inactive”.

How did the inhibition turn out when `O=C(Cn1nc(C2CC2)cc1C(F)F)Nc1cnn(Cc2c(F)cc(F)c(F)c2F)c1` was run?
Its inhibition is “inactive”.

How did the inhibition turn out when `Cc1cccc(CN2C(=O)COc3cc(C(=O)N4CCN(Cc5ccccc5)CC4)ccc32)c1` was run?
Its inhibition is “inactive”.

`Cc1cc(C(=O)N2CCCN(c3cc(-c4cc(F)ccc4C)ncn3)CC2)no1` was tested. Which inhibition did it give?
Its inhibition is “inactive”.

How did the inhibition turn out when `O=C(Nc1cnn(Cc2ccc(F)cc2)c1)c1noc2c1CCCC2` was run?
Its inhibition is “inactive”.

With `COc1cc(C(=O)Nc2cnn(Cc3cccc(I)c3)c2)cc(OC)c1OC` as the compound, how does the inhibition read?
The inhibition was “inactive”.

For `COc1cccc(-c2cc(C(=O)Nc3cnn(Cc4ccccc4C)c3)no2)c1`, which inhibition is on record?
The inhibition was “inactive”.

`Cc1onc(-c2ccccc2Cl)c1C(=O)Nc1cnn(Cc2ccccc2)c1` was tested. Which inhibition did it give?
Its inhibition is “inactive”.

`Cc1cc(C(=O)N2CCCC(CN3CCc4ccccc4C3)C2)no1` (stereo not given) was tested. Which inhibition did it give?
The inhibition was “inactive”.

For `COCCN(CC1CCCN(C(=O)c2cc(C)on2)C1)C(C)C` (stereo not given), which inhibition is on record?
The inhibition was “inactive”.

With `Cc1ccccc1Cn1cc(NC(=O)c2cc(-c3cccs3)on2)cn1` as the compound, how does the inhibition read?
The inhibition was “inactive”.

`Cc1cc(C(=O)N2CCCC(CN3CCN(c4cnccn4)CC3)C2)no1` (stereo not given) was tested. Which inhibition did it give?
The inhibition was “inactive”.

For `COc1cc(CN(C)C(=O)c2ccc(N3CCC(O)(c4cccc(C(F)(F)F)c4)CC3)nc2)cc(OC)c1OC`, which inhibition is on record?
Its inhibition is “inactive”.

With `CC(C)(C)c1ccc2onc(C(=O)Nc3cnn(Cc4cccc(F)c4)c3Cl)c2c1` as the compound, how does the inhibition read?
Its inhibition is “inactive”.

With `CCc1ccc(C2c3nc[nH]c3CCN2C(=O)c2cc(C)on2)cc1` (stereo not given) as the compound, how does the inhibition read?
The inhibition was “inactive”.

Which inhibition does the source give for `COc1cccc(C2c3nc[nH]c3CCN2C(=O)c2cc(C)on2)c1` (stereo not given) here?
The inhibition was “inactive”.

How did the inhibition turn out when `O=C(Nc1cnn(Cc2ccc(Cl)cc2Cl)c1)c1noc2c1CCCCC2` was run?
The inhibition was “inactive”.

With `Cc1noc(C)c1CN1C(=O)COc2cc(C(=O)NCc3ccc(C(F)(F)F)nc3)ccc21` as the compound, how does the inhibition read?
The inhibition was “inactive”.

How did the inhibition turn out when `CCOc1ccc(Cn2cc(NC(=O)C(C)(C)n3cc([N+](=O)[O-])cn3)cn2)cc1OCC` was run?
The inhibition was “inactive”.

How did the inhibition turn out when `Cc1cc(C(=O)N2CCCN(c3cc(-c4ccc5ccccc5c4)ncn3)CC2)no1` was run?
The inhibition was “inactive”.

`Cc1cc(C(=O)N2CCc3[nH]cnc3C2c2ccc(F)cc2)no1` (stereo not given) was tested. Which inhibition did it give?
Its inhibition is “inactive”.

Which inhibition does the source give for `CCCc1cc(C(=O)Nc2cnn(Cc3ccc(F)cc3)c2)no1` here?
Its inhibition is “inactive”.

`O=C(Nc1cnn(Cc2ccc(F)cc2)c1)c1noc2ccccc12` was tested. Which inhibition did it give?
The inhibition was “inactive”.

Which inhibition does the source give for `Cc1cc(C(=O)N2CCc3[nH]cnc3C2c2ccccc2F)no1` (stereo not given) here?
The inhibition was “inactive”.

How did the inhibition turn out when `COc1cc(CN(C)C(=O)c2ccc(N3CCC(O)(Cc4ccccc4)CC3)nc2)cc(OC)c1OC` was run?
Its inhibition is “inactive”.
